Patent publication US12662672B2, “Method of promoting survival and/or function of a motor neuron and related agents, uses and methods” (Agency for Science, Technology and Research, priority 2019, dated 2026)

Assays:
[1] = system: ALS MNs; test: Motor neuron survival assay (ISL1+ MNs) in ALS iPSC-derived MNs; type: cell-based, human; conditions: for MN survival (ISL1+ MNs): ALS MNs, treatment from day 28, NAM 0.5 mM, C12 5 μM, Riluzole 5 μM, Edaravone 100 μM, siRNA 10 pmol
Text: Cultures were then fixed with 4% PFA on Day 25, 28, 31 and 35 respectively for quantification of motor neuron survival. Fixed cultures were stained with the motor neuron marker ISL1, and cellular nuclei were counterstained with DAPI before imaging on the high content microscope Phenix (Perkin Elmer). Percentage of ISL1+ cells was normalized to total nuclei number. To calculate normalized survival index, the percentage of ISL1+/DAPI at day 25 was arbitrary set as 1.0, and motor neuron survival on later days were in turn normalized to day 25 cultures.
(§1) Motor neuron cultures at day 27 were dissociated with Accutase and seeded at 2 million cells per well in a 6-well plate. At day 28, non-targeting siRNA or siRNAs were individually complexed with Lipofectamine RNAiMAX following manufacturer's instructions and added to the motor neuron cultures. For each well, 10 pmol of siRNAs and 8 μl of Lipofectamine RNAiMAX were used. Cells were either harvested for RNA and protein analyses, fixed for immunostaining or metabolic flux analysis were performed 3 days after siRNA transfection.

[2] = system: ALS MNs; test: Metabolic flux analysis, MitoStress assay (OCR) in ALS MNs; type: cell-based, human; conditions: for ATP production / basal respiration / spare respiratory capacity: NAM 0.5 mM, siRNA 3 days; for ATP production: C12 5 μM; for mitochondrial respiration / metabolic profile: day 31, C12 5 μM, Riluzole 5 μM, Edaravone 100 μM
Method: (§2) After dissociating with Accutase, cells were blocked with solution containing phosphate-buffered saline, 0.5% bovine serum albumin (BSA) and 2 mM EDTA. The cells were then incubated with CD171-APC antibody (Miltenyi Biotec) and PSA-NCAM-APC antibody (Miltenyi Biotec) for 10 mins at 4° C. After washing, the cells were then incubated with anti-APC microbeads for 15 minutes at 4° C. The cells were then washed twice and filtered prior to loading into the separation column (LS column) that was attached to a magnetic stand (all from Miltenyi Biotec). After three rounds of washing, the column was removed from the magnetic stand and labelled cells were eluted in culture media for replating.
as §1

[3] = system: ALS MNs; test: Metabolic flux analysis, Glycolysis stress assay (ECAR) in ALS MNs; type: cell-based, human; conditions: for glycolysis: C12 5 μM, siRNA 3 days
Method: as §1

[4] = system: ALS MNs; test: Neuronal morphology (soma size, primary neurites) in ALS MNs; type: cell-based, human; conditions: for number of primary neurites / soma size: day 31; for neuronal morphologies: day 31, NAM 0.5 mM, C12 5 μM, Riluzole 5 μM, Edaravone 100 μM, siRNA
Method: Cells were fixed in 4% paraformaldehyde for 15 minutes, permeabilized in 0.1% Triton X-100 for 15 minutes and blocked in buffer containing 5% FBS and 1% BSA for an hour at room temperature. Primary antibodies (Table S4) were diluted in blocking buffer and incubated overnight at 4° C. Cells were washed thrice in PBS. The respective secondary antibodies were diluted 1:1500 in blocking buffer and incubated at room temperature, in the dark, for 90 minutes. DAPI was used at 0.1 μg/ml to visualize cellular nuclei.
Images were acquired using the high content microscope Phenix (Perkin Elmer) using the 20× air objective. Image analyses including cell counts and intensity measurements were performed using Columbus (Perkin Elmer).
For primary neurites analysis, neuronal projections from the soma size was determined based on SMI-32 staining. For soma size analysis, cellular nuclei were identified by DAPI, and the cytoplasmic area surrounding the nucleus was determined based on SMI-32 staining. Soma size area was measured by image analysis software (ImageJ, NIH) based on the cytoplasmic area surrounding the nucleus, excluding neuronal projections.

[5] = system: total MnSOD; test: Western blot of total MnSOD protein levels in C12-treated MNs; type: cell-based, human; conditions: BJ-SOD1^L144F MNs, increasing doses of C12, day 31
Method: (§3) Protein lysates were resolved in 12% SDS-PAGE gels or 4-20% precast gels in Tris-Glycine-SDS buffer. Proteins were then transferred to a nitrocellulose membrane and blocked with 5% milk in TBST buffer. Primary antibodies were diluted in 5% milk and incubated with the membranes overnight at 4° C. Membranes were washed thrice in TBST buffer. The corresponding horseradish peroxidase secondary antibodies (Life Technologies) were then diluted 1:5000 in 5% milk and incubated at room temperature for 90 minutes. Blots were washed thrice before exposing to ECL for imaging.

[6] = system: mitochondrial acetyl-lysine proteins; test: Western blot of acetyl-lysine proteins in purified mitochondrial extracts of ALS MNs; type: cell-based, human; conditions: panel of ALS MNs, 5 μM C12, day 31
Method: as §3
(§4) Mitochondria from motor neuron cultures were isolated using the MACS technology. Motor neurons culture were first Accutase and wash twice with PBS before resuspending in ice cold Lysis buffer. The cells were then homogenized with a dounce homogenizer (Pestle B) 15 strokes. The homogenate was diluted with 1× separation buffer based on manufacturer's instructions. Anti-TOM22 were added to magnetically label the mitochondria before incubating at 4° C. for 1 hour. The cells were then washed twice and filtered prior to loading into the separation column (LS column) that was attached to a magnetic stand (all from Miltenyi Biotec). After three rounds of washing, the column was removed from the magnetic stand and labelled mitochondria were eluted in storage buffer for downstream applications.

[7] = system: CHOP; test: qPCR of ER stress transcript CHOP in ALS MN cultures; type: cell-based, human; conditions: ALS MNs, day 31; C12 5 μM, Riluzole 5 μM, Edaravone 100 μM
Method: (§5) Cells were harvested in Trizol reagent for RNA extraction following manufacturer's instructions. Purified RNA was converted to cDNA using the High-Capacity cDNA Reverse Transcription kit, and quantitative PCR (qPCR) was performed on the QuantStudio 5 Real-Time PCR System using PowerUp™ SYBR™ Green Master Mix (all from Applied Biosystems). Gene expressions were normalized to HPRT and ACTB expression unless otherwise stated.

[8] = system: spliced XBP1 (sXBP1); test: qPCR of ER stress transcript spliced XBP1 in ALS MN cultures; type: cell-based, human; conditions: ALS MNs, day 31; C12 5 μM, Riluzole 5 μM, Edaravone 100 μM
Method: as §5

[9] = system: mitochondrial Complex I; test: Complex I activity in ALS MNs; type: cell-based, human; conditions: day 31, C12
Method: Cell lysates were prepared using Complex I Enzyme Activity Microplate Assay Kit (Abcam), following the manufacturer's instructions. Activity of Complex I was recorded, normalized and quantified based on manufacturer's instructions. Biological triplicates were performed with a minimum of 3 technical replicates each.

[10] = system: SMA type I (1-38G) MNs; test: MitoStress assay in SMA type I MNs; type: cell-based, human; conditions: 5 μM C12
[11] = target: T1, SIRT1 (Homo sapiens, UniProt Q96EB6); test: Cellular thermal shift assay (CETSA), SIRT1; conditions: 20 μM C12, 1 hour, intact HEK293T cells, 48-68° C.
T1 sequence (Q96EB6 1-747): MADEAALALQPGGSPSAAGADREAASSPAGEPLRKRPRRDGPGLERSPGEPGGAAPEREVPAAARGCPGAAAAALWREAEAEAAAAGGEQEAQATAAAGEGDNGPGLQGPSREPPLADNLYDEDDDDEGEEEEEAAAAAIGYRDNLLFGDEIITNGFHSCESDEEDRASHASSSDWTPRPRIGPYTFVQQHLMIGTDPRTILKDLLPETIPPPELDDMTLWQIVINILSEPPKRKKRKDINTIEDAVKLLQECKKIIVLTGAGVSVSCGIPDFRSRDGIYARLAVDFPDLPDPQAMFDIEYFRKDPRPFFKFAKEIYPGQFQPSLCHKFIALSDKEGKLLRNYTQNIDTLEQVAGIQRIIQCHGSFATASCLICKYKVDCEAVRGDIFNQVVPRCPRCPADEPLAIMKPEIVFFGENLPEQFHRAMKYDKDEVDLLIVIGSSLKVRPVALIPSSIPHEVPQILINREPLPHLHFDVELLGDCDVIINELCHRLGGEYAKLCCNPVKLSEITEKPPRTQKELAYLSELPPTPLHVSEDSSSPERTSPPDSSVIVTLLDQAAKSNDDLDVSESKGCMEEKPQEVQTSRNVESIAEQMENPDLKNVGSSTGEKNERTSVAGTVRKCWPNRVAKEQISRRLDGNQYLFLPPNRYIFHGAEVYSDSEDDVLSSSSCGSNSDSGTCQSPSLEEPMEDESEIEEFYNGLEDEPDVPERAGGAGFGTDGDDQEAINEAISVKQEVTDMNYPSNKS
Method: CETSA was performed as previously described (3) and HEK293T cells were used to carry out the experiment. […] After the incubation, the cells were harvested, washed, pellet down and resuspended in 1 mL of PBS. Equal amounts of cell suspensions were aliquoted into Eppendorf tubes. The cell suspensions were then heated (48-68° C.) and lysed using 2 cycles of freeze-thawing. The soluble fractions were isolated and analyzed by Western blot analysis as described above.

[12] = system: ALS patients; conditions: cited from earlier work
[13] = system: ALS MNs; test: Mitochondrial NAD+ quantification in ALS iPSC-derived MNs; type: cell-based, human; conditions: 0.5 mM NAM
Method: as §4
(§6) Mitochondria from motor neuron cultures (10 million cells) were isolated using the MACS technology (as described above). Mitochondrial NAD+ was prepared quantified using NAD/NADH-Glo™ Assay (Promega) following manufacturer's instructions. Briefly, isolated mitochondria were first diluted in PBS, bicarbonate base buffer and 1% DTAB in a ratio of 2:1:1. […] After heating, 0.5M of Trizma base was added to the suspension and levels of mitochondrial NAD^+ were recorded, normalized to NAD^+ standard curve and quantified based on manufacturer's instructions (Promega). […]

[14] = system: healthy MNs; test: Mitochondrial NAD+ quantification in healthy iPSC-derived MNs; type: cell-based, human; conditions: NAM supplementation
Method: as §4, §6

[15] = system: healthy MNs; test: Metabolic flux analysis, MitoStress assay (OCR) in healthy MNs; type: cell-based, human
Method: as §2, §1

[16] = system: GCN5L1; test: GCN5L1 knockdown by siRNA in iPSC-derived MNs (qPCR); type: cell-based, human; conditions: day 31, vs non-targeting siRNA
Method: as §1, §5

Compound: COc1ccc(-c2cc3ccc(O)cc3oc2=O)cc1 [C12, 7-hydroxy-3-(4′-methoxyphenyl) coumarin]
- cytotoxicity ([1]; 10 μM C12, ALS MNs (BJ-SOD1^L144F)): cytotoxic
- MN survival (ISL1+ MNs) [1]: promoted ALS MN survival
- ATP production ([2]; SIRT3 lentivirus day 28-31): rescued ATP production back to healthy levels
- mitochondrial respiration / metabolic profile [2]: promoted mitochondrial respiration
- glycolysis [3]: reduced glycolysis
- number of primary neurites [4]: increased number of primary neurites
- soma size [4]: enlarged soma sizes
- neuronal morphologies [4]: improved neuronal morphologies
- total MnSOD protein levels [5]: remains unchanged
- mitochondrial acetyl-lysine signals [6]: significantly reduced
- expression of ER stress transcript CHOP [7]: significantly reduced
- expression of ER stress transcript sXBP1 [8]: significantly reduced
- mitochondrial Complex I activity [9]: increased mitochondrial Complex I activity
- metabolic defect (basal respiration, ATP production) [10]: did not improve the metabolic defect
- thermal stability of SIRT1 [11]: but not another abundantly expressed sirtuin, SIRT1

Compound: CC1=NN(c2ccccc2)C(=O)C1 [Edaravone]
- MN survival (ISL1+ MNs) [1]: promoted ALS MN survival
- mitochondrial respiration / metabolic profile [2]: did not show any significant changes
- number of primary neurites [4]: no significant change
- soma size [4]: no significant change
- neuronal morphologies [4]: did not improve neuronal morphologies
- expression of ER stress transcript CHOP [7]: significantly reduced
- expression of ER stress transcript sXBP1 [8]: significantly reduced
- efficacy in ALS patients [12]: efficacy only in a small subset of ALS patients

Compound: NC(=O)c1cccnc1 [NAM, Nicotinamide]
- mitochondrial NAD+ levels [13]: significantly elevated
- mitochondrial NAD+ levels [14]: did not elevate
- MN survival (ISL1+ MNs) [1]: promoted ALS MN survival
- ATP production ([2]; SIRT3 lentivirus day 28-31): significantly improved
- basal respiration ([2]; SIRT3 lentivirus day 28-31): significantly improved
- spare respiratory capacity ([2]; SIRT3 lentivirus day 28-31): significantly improved
- mitochondrial respiration (OCR parameters) [15]: no significant effects
- hyper-glycolytic metabolic profile / phenotype [3]: corrected the hyper-glycolytic metabolic profile
- neuronal morphologies [4]: healthier neuronal morphologies

Compound: Nc1nc2ccc(OC(F)(F)F)cc2s1 [Riluzole]
- expression of ER stress transcript CHOP [7]: significantly reduced
- expression of ER stress transcript sXBP1 [8]: significantly reduced
- efficacy in ALS patients [12]: efficacious amongst bulbar-onset ALS patients and not in subjects with limb-onset ALS
- lifespan extension ([12]; on average): 3 months

Compound: GCN5L1 siRNA: siRNA against human GCN5L1, Dharmacon J-012580-09-0010 (AGAGGAGGCGAGAGGCUAU; listed as RNA, further chemistry not given here)
- MN survival (ISL1+ MNs) [1]: promoted survival
- ATP production ([2]; SIRT3 lentivirus day 28-31): rescued ATP production back to healthy levels
- ATP production ([2]; SIRT3 lentivirus day 28-31, listed as siRNAs targeting GCN5L1): significant improvements
- basal respiration ([2]; SIRT3 lentivirus day 28-31): significant improvements
- spare respiratory capacity ([2]; SIRT3 lentivirus day 28-31): significant improvements
- basal acidification [3]: reduced
- glycolytic capacity [3]: reduces glycolytic capacity
- hyper-glycolytic metabolic profile / phenotype [3]: reduced hyper-glycolytic phenotype
- glycolysis [3]: reduced
- neuronal morphologies [4]: healthier neuronal morphologies
- GCN5L1 knockdown [16]: 60%
